Patent US11970731B2, “Enhancement of nucleic acid polymerization by aromatic compounds” (priority 2018, dated 2024)

How the values were obtained:
C4552 DNA polymerase = biological target: T1, C4552 DNA polymerase (Saccharolobus solfataricus, UniProt Q97W02, A155G/A42V/D156R/D292Y/D294N/E291S/E324K/E325K/E327K/E79L/G187P/G299W/I153V/I189F/I248T/I295S/K152A/K317Q/K321Q/K56Y/K78D/L293W/M76W/N188Y/P184Q/Q82W/Q83G/R300S/S297Y/S86E/T290K/T301W/V289W/V296Q); assay: Primer extension assays using three 100mer templates derived from HIV1, 2 and 3 genomes; type: biochemical, Sulfolobus solfataricus; conditions: 0.5 mM PEM; HIV1, HIV2, HIV3 100mer templates; 30 minutes at 23° C.; FIG. 9
T1 construct: made in house
T1 sequence (Q97W02 other isoform, or with tags, fused parts or gaps with the stated changes): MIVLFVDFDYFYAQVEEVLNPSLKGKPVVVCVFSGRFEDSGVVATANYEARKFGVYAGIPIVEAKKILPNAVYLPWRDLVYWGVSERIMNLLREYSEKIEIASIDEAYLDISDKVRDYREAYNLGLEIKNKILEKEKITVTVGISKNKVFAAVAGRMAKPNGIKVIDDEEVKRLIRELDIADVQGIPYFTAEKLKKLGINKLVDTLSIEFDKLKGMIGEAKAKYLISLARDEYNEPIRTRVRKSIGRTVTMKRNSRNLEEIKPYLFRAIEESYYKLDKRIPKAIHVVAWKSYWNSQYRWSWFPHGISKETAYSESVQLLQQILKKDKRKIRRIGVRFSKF
Procedure: PEM activity of compounds 9-11 was tested in primer extension assays using three 100mer templates, derived from the HIV1, 2, and 3 genomes. Primer extension reactions included the following reagents: 75 mM TrisCl, pH 8.44, 175 mM NH4OAc, 20% PEG8K, 5% NMS, 0.8 nmol PP-60.20, 0.6 mM MnCl2, 2.3 μg Tth single-strand binding protein (SSB), 0.5 M or 1 M urea, 200 pmol each XNTP, 1.1 pmol template, 1 pmol oligonucleotide primer, 1.2 μg purified recombinant C4552 DNA polymerase, and 0.5 mM PEM. 10 μL primer extension reactions were run for 30 minutes at 23° C. and reaction products were analyzed by gel electrophoresis.

[1] = biological target: T2, C4760 DNA polymerase (a variant of DPO4) (Saccharolobus solfataricus, UniProt Q97W02, A155G/A42V/D156R/D292Y/D294N/E291S/E324K/E325K/E327K/E63R/E79L/G187P/G299W/I153V/I189F/I248T/I295S/K152A/K317Q/K321Q/K56Y/K78D/L293W/M76W/N188Y/P184Q/Q82W/Q83G/R300S/S297Y/S86E/T290K/T301W/V289W/V296Q); assay: Primer extension assays using a 411mer amplicon template; type: biochemical, Sulfolobus solfataricus; conditions: comparator compound 14 (lane 1)
T2 construct: made in house
T2 sequence (Q97W02 other isoform, or with tags, fused parts or gaps with the stated changes): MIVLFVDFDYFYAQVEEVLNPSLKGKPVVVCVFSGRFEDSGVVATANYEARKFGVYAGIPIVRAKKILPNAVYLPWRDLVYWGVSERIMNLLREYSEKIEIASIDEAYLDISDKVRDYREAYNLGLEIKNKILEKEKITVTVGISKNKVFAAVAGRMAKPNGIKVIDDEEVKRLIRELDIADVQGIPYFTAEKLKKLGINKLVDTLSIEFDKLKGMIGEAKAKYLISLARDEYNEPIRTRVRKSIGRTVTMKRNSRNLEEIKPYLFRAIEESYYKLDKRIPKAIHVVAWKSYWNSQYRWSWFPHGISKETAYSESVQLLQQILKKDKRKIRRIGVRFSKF
Procedure: PEM activity of compound 15 was tested in primer extension assays using a 411mer amplicon template. Primer extension reactions included the following reagents: 50 mM TrisCl, 200 mM NH4OAc, 20% PEG8K, 5% NMS, 3 nmol PP-60.20, 2 mM MnCl2, 2 μg Kod single-strand binding protein (SSB), 1 M urea, 250 pmol each XNTP, 1 pmol template, 1 pmol oligonucleotide primer, 1.2 μg purified recombinant C4760 DNA polymerase (a variant of DPO4, see SEQ ID NO:2), and 2 (lane 2) or 3 (lane 3) mM PEM. 10 μL primer extension reactions were run for 20 minutes at 37° C. and reaction products were analyzed by gel electrophoresis. A representative gel showing primer extension products is presented in FIG. 12 (the position of a 277mer is indicated by the arrow). […] Remarkably, the polymerase is completely dependent upon the addition of PEM to the reaction in order to be capable of synthesizing these lengthy Xpandomer products. Even longer extension products may be obtained by optimizing various reaction parameters, e.g., extension time and/or concentrations of various additives.
PEM activity of compound 19, was tested in primer extension assays using the 411 mer amplicon template. […] 10 μL primer extension reactions were run for 30 minutes at 37° C. and reaction products were analyzed by gel electrophoresis. […]

[2] = biological target: T3, C4552 (variant of DPO4 DNA polymerase) (Saccharolobus solfataricus, UniProt Q97W02, A155G/A42V/D156R/D292Y/D294N/E291S/E324K/E325K/E327K/E79L/G187P/G299W/I153V/I189F/I248T/I295S/K152A/K317Q/K321Q/K56Y/K78D/L293W/M76W/N188Y/P184Q/Q82W/Q83G/R300S/S297Y/S86E/T290K/T301W/V289W/V296Q); assay: XNTP polymerization reactions on longer templates (88, 127, 227, 277 nucleotides); type: biochemical, Sulfolobus solfataricus; conditions: 1 mM compound; templates of 88, 127, 227 and 277 nucleotides; 3 or 4 nmol PP-60.20; 1-2 hr at 23° C.; FIG. 8
T3 construct: made in house
Procedure: Following the success of accurately replicating templates of up to 80 nucleotides in length into Xpandomers, XNTP polymerization reactions were conducted using four longer templates, consisting of 88, 127, 227, and 277 nucleotides in length. A variant of DPO4 DNA polymerase, referred to as C4552 (SEQ ID NO:1), was used in these polymerization reactions and reaction conditions were optimized for C4552 activity in the presence of PEM compound 1. Other suitable DPO4 polymerase variants include, but are not limited to, those of SEQ ID NO:2, SEQ ID NO:3, SEQ ID NO:4, and SEQ ID NO:5. In addition to 1 mM compound 1, reaction additives included 1 mM urea and 2.75 μg single-strand binding protein (Eco SSB). Extension reactions were carried out with 0.85 pmol template, 0.5 pmol oligonucleotide primer, and 1 nmol each XNTP in a final volume of 10 μL. Reactions were run in buffer composed of 50 mM TrisCl, pH 8.84, 200 mM NH4OAc, and 20% PEG8K supplemented with 5% NMS, polyphosphate PP-60.20 in amounts of 3 or 4 nmol, and 2 mM MnCl2. 1.2 μg purified recombinant DNA polymerase protein was used in each extension reaction and reactions were run for 1-2 hr at 23° C. […] Lanes 1-5 and 6-10 represent identical extension reactions with the exception of the amount of PP-60.20 additive, which was 3 nmol in lanes 1-5 and 4 nmol in lanes 6-10.

DNA polymerase [3] = assay: Sequencing by Expansion (SBX) of primer extension products, nanopore sequence reads aligned to template; type: biochemical
Procedure: To investigate the accuracy of PEM-dependent enhancement of XNTP polymerization, primer extension products were sequenced using the SBX protocol. Briefly, the constrained Xpandomer products of XNTP polymerization are cleaved to generate linearized Xpandomers. This is accomplished by first quenching the extension reaction with a solution containing 100 mM EDTA, 2 mM THPTA, and 2% Tween-20. Then the sample is subjected to amine modification with a solution of 1 M NaHCO3 and 1 M succinic anhydride in DMF. Cleavage of the phosphoramidate bonds is carried out with 37% HCl and linearized Xpandomers are purified with QIAquick columns (QIAGEN, Inc.).
For sequencing, protein nanopores are prepared by inserting α-hemolysin into a DPhPE/hexadecane bilayer member in buffer B1, containing 2 M NH4Cl and 100 mM HEPES, pH 7.4. The cis well is perfused with buffer B2, containing 0.4 M NH4Cl, 0.6 M GuCl, and 100 mM HEPES, pH 7.4. The Xpandomer sample is heated to 70° C. for 2 minutes, cooled completely, then a 2 μL sample is added to the cis well. A voltage pulse of 90 mV/390 mV/10 μs is then applied and data is acquired via Labview acquisition software.
Sequence data is analyzed by histogram display of the population of sequence reads from a single SBX reaction. […] Representative histograms of SBX sequencing of a 45mer template are presented in FIG. 6A (no additive control) and FIG. 6B (SBX in the presence of PEM compound 1).

DNA polymerase [4] = assay: Screen of PEMs for enhancement of XNTP polymerization (primer extension, gel electrophoresis); type: biochemical; conditions: FIG. 4 gel; 45 mer template; without PEM additive up to only around 14 XNTPs
Procedure: A representative primer extension reaction may include the following reagents: 2 pmol primer, 2.2 pmol 45 mer oligonucleotide template, 50 pmol of each XNTP (XATP, XCTP, XGTP, and XTTP), 50 mM Tris HCl, pH 6.79, 200 mM NaCl, 20% PEG, 5% NMS, 0.5 nmol polyphosphate 60.19, 0.3 mM MnCl2, and 0.6 μg of purified recombinant DNA polymerase protein. Reactions may be run for 1 hr at 23° C. Reaction products (i.e., constrained Xpandomers) are treated to cleave the phosphoramidate bonds, thereby generating linearized Xpandomers. Reaction products may be analyzed using gel electrophoresis on 4-12% acrylamide gels to resolve and visualize Xpandomer products of different lengths. For the PEM screen described above, PEMs were typically tested in the micro to millimolar range.
Again, this PEM activity is specific for compound 2, as other unrelated aromatic compounds had no effect (lanes 2-7).

COc1cc(-c2cn(-c3ccc(C(=O)O)c(O)c3)nn2)nc(-c2cn(-c3ccc(C(=O)O)c(O)c3)nn2)c1 [Compound 9, 4,4′-((4-methoxypyridine-2,6-diyl)bis(1H-1,2,3-triazole-4,1-diyl))bis(2-hydroxybenzoic acid)]
PEM activity: polymerization of XNTPs into Xpandomer copies of 100 mer templates (C4552 DNA polymerase): enable XNTP polymerization at least as efficiently as compound 1

NC(=O)c1cc(-c2cn(-c3ccc(C(=O)O)c(O)c3)nn2)nc(-c2cn(-c3ccc(C(=O)O)c(O)c3)nn2)c1 [Compound 19, 4,4′-((4-carbamoylpyridine-2,6-diyl)bis(1H-1,2,3-triazole-4,1-diyl))bis(2-hydroxybenzoic acid)]
PEM activity: polymerization of XNTPs into Xpandomer copies of the 411 mer template ([1]; 0.5, 1, or 1.5 mM PEM, 0.5 pmol template, 30 minutes at 37° C., FIG. 14): enables polymerization of XNTPs into lengthy Xpandomer copies of the 411 mer template, albeit in a manner less efficient than that of compound 14

O=C(O)c1ccc(-n2cc(-c3cccc(-c4cn(-c5ccc(C(=O)O)c(O)c5)nn4)n3)nn2)cc1O [Compound 1, 4,4′-(pyridine-2,6-diylbis(1H-1,2,3-triazole-4,1-diyl))bis(2-hydroxybenzoic acid)]
polymerization of XNTPs into Xpandomer copies of longer templates [2]: generate complete Xpandomer copies of each longer template | accuracy of SBX sequence reads (DNA polymerase [3]; 45mer template, FIG. 6B, without additive reads not accurate past around base 18): increased the accuracy of the sequence reads across the entire length of the 45 mer template | accuracy of SBX sequence reads (DNA polymerase [3]; 60 mer template, FIG. 7A): enabled accurate sequence reads completely to the end of each of these longer templates | accuracy of SBX sequence reads (DNA polymerase [3]; 80 mer template, FIG. 7B): enabled accurate sequence reads completely to the end of each of these longer templates | DNA polymerase-mediated primer extension with XNTPs (length of extension products) (DNA polymerase [4]): enables the polymerase to synthesize considerably longer extension products | PEM activity: polymerization of XNTPs into Xpandomer copies of 100 mer templates (C4552 DNA polymerase): enables polymerization of XNTPs into full length Xpandomer copies of the three different 100 mer templates

O=C(O)c1ccc(-n2cc(-c3cc([N+](=O)[O-])cc(-c4cn(-c5ccc(C(=O)O)c(O)c5)nn4)n3)nn2)cc1O [Compound 11, 4,4′-((4-nitropyridine-2,6-diyl)bis(1H-1,2,3-triazole-4,1-diyl))bis(2-hydroxybenzoic acid)]
PEM activity: polymerization of XNTPs into Xpandomer copies of 100 mer templates (C4552 DNA polymerase): enable XNTP polymerization at least as efficiently as compound 1

CCOC(=O)c1cc(-c2cn(-c3ccc(O)c(C(=O)O)c3)nn2)nc(-c2cn(-c3ccc(O)c(C(=O)O)c3)nn2)c1 [Compound 15, 5,5′-((4-(ethoxycarbonyl)pyridine-2,6-diyl)bis(1H-1,2,3-triazole-4,1-diyl))bis(2-hydroxybenzoic acid)]
PEM activity: polymerization of XNTPs into Xpandomer copies of the 411 mer template ([1]; 2 or 3 mM PEM, 1 pmol template, 20 minutes at 37° C., FIG. 12): enables polymerization of XNTPs into lengthy Xpandomer copies of the 411 mer template in a manner comparable to that of compound 14
